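Interpolation was linear, between the two tested concentrations surrounding the appropriate level; five concentrations were tested over 48 hours in 96-well plates. Here, GI50 denotes the concentration required for 50% inhibition of growth.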 Active and inactive are the calls of the source. Rule as the data show it: active = GI50 up to about 1.1 µM and inactive = higher.
Columns and labels:
Assay in all cases: NCI tumour cell line growth inhibition, 48 h
A498 = test system: A498
A549 = test system: A549
DU-145 = test system: DU-145
HCT-15 = test system: HCT-15
HOP-62 = test system: HOP-62
HT-29 = test system: HT-29
Hs-578T = test system: Hs-578T
K562 = test system: K562
MCF7 = test system: MCF7
MDA-MB-231 = test system: MDA-MB-231
MDA-MB-435 = test system: MDA-MB-435
MDA-N = test system: MDA-N
SF-268 = test system: SF-268
SF-295 = test system: SF-295
SK-MEL-28 = test system: SK-MEL-28
SK-MEL-2 = test system: SK-MEL-2
SN12C = test system: SN12C
SNB-19 = test system: SNB-19
SW-620 = test system: SW-620
U-251 = test system: U-251

SMILES | GI50 (A498) | GI50 (A549) | GI50 (DU-145) | GI50 (HCT-15) [µM] | GI50 (HOP-62) | GI50 (HT-29) | GI50 (Hs-578T) | GI50 (K562) | GI50 (MCF7) | GI50 (MDA-MB-231) | GI50 (MDA-MB-435) | GI50 (MDA-N) | GI50 (SF-268) | GI50 (SF-295) | GI50 (SK-MEL-28) | GI50 (SK-MEL-2) | GI50 (SN12C) | GI50 (SNB-19) | GI50 (SW-620) | GI50 (U-251)
c1ccc2c(c1)c1c(c3ccccc32)CN2CCCC2C1 (stereo not given) | 3.72 µM (inactive) | 2.96 µM (inactive) | 4.17 µM (inactive) | 4.09 | 2.79 µM (inactive) | 3.72 µM (inactive) | 2.38 µM (inactive) | 8.39 µM (inactive) | 2.44 µM (inactive) | 3.2 µM (inactive) | 4.42 µM (inactive) | 2.82 µM (inactive) | 2.92 µM (inactive) | 3.09 µM (inactive) | 2.62 µM (inactive) | 2.3 µM (inactive) | 2.7 µM (inactive) | 2.66 µM (inactive) | 2.45 µM (inactive) | 3.4 µM (inactive)
Nc1ccc2c(c1)N(C(=O)c1cc3cc(NC(=O)c4cc5ccccc5o4)ccc3[nH]1)CC2CCl (stereo not given) | 0.16 µM (active) | 0.0299 µM (active) | 0.0254 µM (active) | 0.0847 | 0.138 µM (active) | 0.129 µM (active) | 0.293 µM (active) | 0.0662 µM (active) | 0.0221 µM (active) | 0.239 µM (active) | 0.162 µM (active) | 0.183 µM (active) | 0.0498 µM (active) | 0.0434 µM (active) | 0.177 µM (active) | 0.0755 µM (active) | 0.215 µM (active) | 0.277 µM (active) | 0.0973 µM (active) | 0.106 µM (active)
CN(C)CCn1nc(N)c2nc3cc(C(F)(F)F)ccc3nc21 | > 100 µM (inactive) | 58.2 µM (inactive) | 54.8 µM (inactive) | 67.3 | 57.4 µM (inactive) | > 100 µM (inactive) | 88.7 µM (inactive) | > 100 µM (inactive) | > 100 µM (inactive) | > 100 µM (inactive) | > 100 µM (inactive) | > 100 µM (inactive) | 94.6 µM (inactive) | > 100 µM (inactive) | > 100 µM (inactive) | > 100 µM (inactive) | > 100 µM (inactive) | > 100 µM (inactive) | 81.1 µM (inactive) | > 100 µM (inactive)
Nc1cccc2cc(S(=O)(=O)Nc3ccc(C(=O)O)cc3)ccc12 | > 100 µM (inactive) | > 100 µM (inactive) | > 100 µM (inactive) | > 100 | > 100 µM (inactive) | > 100 µM (inactive) | > 100 µM (inactive) | > 100 µM (inactive) | > 100 µM (inactive) | > 100 µM (inactive) | > 100 µM (inactive) | > 100 µM (inactive) | > 100 µM (inactive) | > 100 µM (inactive) | > 100 µM (inactive) | > 100 µM (inactive) | > 100 µM (inactive) | > 100 µM (inactive) | > 100 µM (inactive) | > 100 µM (inactive)
Cc1nc2sc(C(=O)c3ccc(Cl)cc3)c(N)c2c(-c2ccccc2Cl)c1C(=O)Nc1ccccc1 | 21.3 µM (inactive) | 9.06 µM (inactive) | 19.1 µM (inactive) | 15.6 | 15.8 µM (inactive) | 12.2 µM (inactive) | 20.1 µM (inactive) | 12.3 µM (inactive) | 15.2 µM (inactive) | 14.2 µM (inactive) | 12.2 µM (inactive) | 10.8 µM (inactive) | 19.3 µM (inactive) | 20.7 µM (inactive) | 13.1 µM (inactive) | 3.08 µM (inactive) | 9.42 µM (inactive) | 22.2 µM (inactive) | 6.22 µM (inactive) | 7.08 µM (inactive)
CCOC(=O)c1cc2c(C(=O)c3ccc([N+](=O)[O-])cc3)c(C(C)=O)ccc2[nH]1 | 50.5 µM (inactive) | 39.4 µM (inactive) | 32.7 µM (inactive) | 50 | 4.43 µM (inactive) | > 100 µM (inactive) | 9.84 µM (inactive) | 26.7 µM (inactive) | > 100 µM (inactive) | 16.9 µM (inactive) | 7.66 µM (inactive) | 11.8 µM (inactive) | 8.3 µM (inactive) | 23.6 µM (inactive) | > 100 µM (inactive) | 55.8 µM (inactive) | 72.8 µM (inactive) | 22.1 µM (inactive) | > 100 µM (inactive) | 9.51 µM (inactive)
c1ccc2c(c1)Nc1ccccc1[P+]21c2ccccc2Nc2ccccc21 | 0.318 µM (active) | 0.182 µM (active) | 0.318 µM (active) | 5.73 | 0.313 µM (active) | 0.0853 µM (active) | 0.0723 µM (active) | 0.212 µM (active) | 0.489 µM (active) | 0.212 µM (active) | 0.284 µM (active) | 0.27 µM (active) | 0.383 µM (active) | 1.3 µM (inactive) | 0.244 µM (active) | 0.199 µM (active) | 0.13 µM (active) | 0.299 µM (active) | 0.279 µM (active) | 0.23 µM (active)
